Measured values reported in patent US12338256B2, “Aza-tetracyclic oxazepine compounds and uses thereof” (Genentech, Inc., priority 2022, dated 2025).

Assays:
Format in all cases: cell-based
[1] = tested on: HPAC (homozygous mutant KRAS G12D human pancreatic cell line); assay: KRAS 3D-Cell Proliferation Assay, HPAC (Example 503); conditions: Homo sapiens, HPAC, 168 h, HPAC 3D culture, 7 days, CellTiter-Glo 3D; read-out: Prolif HPAC 3D ATP IC50
How it was run: (§1)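 IC50 values derive from 4-parameter Hill fits of normalized luminescence, where DMSO sets 0% and 1 μM staurosporine 100% inhibition. 3D cultures in RPMI-1640 with 10% fetal bovine serum were exposed to compound for 7 days before CellTiter-Glo 3D lysis.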

[2] = tested on: AsPC-1 (homozygous mutant KRAS G12D human pancreatic cell line); assay: KRAS 3D-Cell Proliferation Assay, AsPC-1 (Example 503); conditions: Homo sapiens, ASPC1, 168 h, AsPC-1 3D culture, 7 days, CellTiter-Glo 3D; read-out: Prolif AsPC-1 3D ATP IC50
Description: Example 503: KRAS 3D-Cell Proliferation Assays. Cellular potencies of compounds are assessed by evaluating inhibition of proliferation in 3D cultures of homozygous mutant KRAS G12D human pancreatic cell lines (AsPC-1 and HPAC) as compared to a KRAS wild type human lung adenocarcinoma cell line (PC-9 and/or H1975). Cells are seeded into 384-well black round-bottom, ultra-low attachment assay plates in 50 uL cell growth medium (RPMI-1640 with 10% fetal bovine serum and 2 mM L-glutamine). After overnight incubation at 37° C. and 5% CO2, compounds solubilized in DMSO are added as dilution series to the wells in a total volume of 150 nL (0.3% DMSO final). The cells are incubated for 7 days at 37° C. and 5% CO2. Cell proliferation is quantitated by addition of 40 uL/well of CellTiter-GloÒ 3D (Promega), and the well contents are mixed 20× at high speed using liquid handling automation workstation (Bravo with 384-well head) and centrifuged at 1500 rpm for 2 minutes to eliminate bubbles. This reagent in combination with mechanical disruption releases the cellular ATP to promote activity in a luciferase-based enzyme/substrate chemiluminescent detection system. After a 30-minute incubation under ambient conditions with shaking and an additional 10 minutes without shaking, the luminescence is read on a plate reader (e.g., EnVision [PerkinElmer]). The results are normalized to percent inhibition based on the following control samples: DMSO (0% inhibition) and 1 μM staurosporine (100% inhibition). The normalized luminescence results are plotted against compound concentration, and the data are fit to a 4-parameter Hill equation to determine the IC50 values.

[3] = tested on: H1975 (KRAS wild type human lung adenocarcinoma cell line); assay: KRAS 3D-Cell Proliferation Assay, H1975 (Example 503); conditions: Homo sapiens, NCI-H1975, 168 h, H1975 3D culture, 7 days, CellTiter-Glo 3D; read-out: Prolif H1975 3D ATP IC50
How it was run: as §1

SMILES	IC50 [1]	IC50 [2]	IC50 [3]
Cc1c(F)c(N)c(F)c(-c2nc3c4c(nc(OC[C@@]56CCCN5CC5(CC5(F)F)C6)nc4c2F)N2C[C@H]4CC[C@H](N4)[C@H]2[C@H](C)O3)c1C(F)(F)F (stereo partly drawn) [Compound 225, 3-((5S,5aS,6S,9R)-12-(((7′S)-2,2-Difluorodihydro-1′H,3′H-spiro[cyclopropane-1,2′-pyrrolizin]-7a′(5′H)-yl)methoxy)-1-fluoro-5-methyl-5a,6,7,8,9,10-hexahydro-5H-4-oxa-3,10a,11,13,14-pentaaza[6,9]methanonaphtho[1,8-ab]heptalene-2-yl)-2,6-difluoro-5-methyl-4-(trifluoromethyl)aniline]	1.19 nM	2.9 nM	561 nM
C[C@@H]1Oc2nc(-c3cc(N)cc(F)c3C(F)(F)F)c(F)c3nc(OC[C@@H]4CC[C@H]5COCCN54)nc(c23)N2C[C@H]3CC[C@H](N3)[C@@H]12 [Compound 77, 3-Fluoro-5-((5S,5aS,6S,9R)-1-fluoro-12-(((6S,8aS)-hexahydro-1H-pyrrolo[2,1-c][1,4]oxazin-6-yl)methoxy)-5-methyl-5a,6,7,8,9,10-hexahydro-5H-4-oxa-3,10a,11,13,14-pentaaza-6,9-methanonaphtho[1,8-ab]heptalen-2-yl)-4-(trifluoromethyl)aniline]	2.79 nM	11.9 nM	358 nM
Cc1c(F)c(N)cc(-c2nc3c4c(nc(OCC5(CN6CCOC[C@H]6C)CC5)nc4c2F)N2C[C@H]4CC[C@H](N4)[C@H]2[C@H](C)O3)c1C(F)(F)F [Compound 129, 2-Fluoro-5-((5S,5aS,6S,9R)-1-fluoro-5-methyl-12-((1-(((R)-3-methylmorpholino)methyl)cyclopropyl)methoxy)-5a,6,7,8,9,10-hexahydro-5H-4-oxa-3,10a,11,13,14-pentaaza-6,9-methanonaphtho[1,8-ab]heptalen-2-yl)-3-methyl-4-(trifluoromethyl)aniline]	1.1 nM	1 nM	1150 nM
Cc1c(F)c(N)cc(-c2nc3c4c(nc(OCC5(CN6CCOCC6)CC5)nc4c2F)N2C[C@H]4CC[C@H](N4)[C@H]2[C@H](C(F)(F)F)O3)c1C(F)(F)F [Compound 249, 2-Fluoro-5-((5R,5aS,6S,9R)-1-fluoro-12-((1-(morpholinomethyl)cyclopropyl)methoxy)-5-(trifluoromethyl)-5a,6,7,8,9,10-hexahydro-5H-4-oxa-3,10a,11,13,14-pentaaza-6,9-methanonaphtho[1,8-ab]heptalene-2-yl)-3-methyl-4-(trifluoromethyl)aniline]	1.37 nM	1.1 nM	417 nM
Cc1c(F)c(N)cc(-c2nc3c4c(nc(OCC56C[C@@H](F)CN5C[C@H](F)C6)nc4c2F)N2C[C@H]4CC[C@H](N4)[C@H]2[C@H](C)O3)c1C(F)(F)F [Compound 140, 5-((5S,5aS,6S,9R)-12-(((2R,6R)-2,6-Difluorotetrahydro-1H-pyrrolizin-7a(5H)-yl)methoxy)-1-fluoro-5-methyl-5a,6,7,8,9,10-hexahydro-5H-4-oxa-3,10a,11,13,14-pentaaza-6,9-methanonaphtho[1,8-ab]heptalen-2-yl)-2-fluoro-3-methyl-4-(trifluoromethyl)aniline]	2.53 nM	4.4 nM	2060 nM
C[C@@H]1Oc2nc(-c3c(C(F)(F)F)cc(F)c(N)c3F)c(F)c3nc(OC[C@@]45CCCN4C[C@H](F)C5)nc(c23)N2C[C@H]3CC[C@H](N3)[C@@H]12 [Compound 90, 2,6-Difluoro-3-((5S,5aS,6S,9R)-1-fluoro-12-(((2R,7aS)-2-fluorotetrahydro-1H-pyrrolizin-7a(5H)-yl)methoxy)-5-methyl-5a,6,7,8,9,10-hexahydro-5H-4-oxa-3,10a,11,13,14-pentaaza-6,9-methanonaphtho[1,8-ab]heptalen-2-yl)-4-(trifluoromethyl)aniline]	7.3 nM	18.9 nM	1140 nM
Cc1nc(N)cc(-c2nc3c4c(nc(OC[C@@]56CCCN5C[C@H](F)C6)nc4c2F)N2C[C@H]4CC[C@H](N4)[C@H]2[C@H](C)O3)c1C(F)(F)F [Compound 215, 4-((5S,5aS,6S,9R)-1-Fluoro-12-(((2R,7aS)-2-fluorotetrahydro-1H-pyrrolizin-7°(5H)-yl)methoxy)-5-methyl-5°,6,7,8,9,10-hexahydro-5H-4-oxa-3,10°,11,13,14-pentaaza-6,9-methanonaphtho[1,8-ab]heptalen-2-yl)-6-methyl-5-(trifluoromethyl)pyridin-2-amine]	2.5 nM	7.8 nM	831 nM
Cc1c(F)c(N)c(F)c(-c2nc3c4c(nc(OC[C@@]56CCCN5C[C@H](F)C6)nc4c2F)N2C[C@H]4CC[C@H](N4)[C@H]2[C@H](C)O3)c1C(F)(F)F [Compound 91, 2,6-Difluoro-3-((5S,5aS,6S,9R)-1-fluoro-12-(((2R,7aS)-2-fluorotetrahydro-1H-pyrrolizin-7a(5H)-yl)methoxy)-5-methyl-5a,6,7,8,9,10-hexahydro-5H-4-oxa-3,10a,11,13,14-pentaaza-6,9-methanonaphtho[1,8-ab]heptalen-2-yl)-5-methyl-4-(trifluoromethyl)aniline]	1.25 nM	1.3 nM	953 nM
Cc1nc(N)cc(-c2nc3c4c(nc(OCC56CCN5CC(F)(F)C6)nc4c2F)N2C[C@H]4CC[C@H](N4)[C@H]2[C@H](C)O3)c1C(F)(F)F (stereo partly drawn) [Compound 214, 4-((5S,5aS,6S,9R)-12-((3,3-Difluoro-1-azabicyclo[3.2.0]heptan-5-yl)methoxy)-1-fluoro-5-methyl-5°,6,7,8,9,10-hexahydro-5H-4-oxa-3,10°,11,13,14-pentaaza-6,9-methanonaphtho[1,8-ab]heptalen-2-yl)-6-methyl-5-(trifluoromethyl)pyridin-2-amine]	8.04 nM	25.4 nM	7030 nM
Cc1c(F)c(N)cc(-c2nc3c4c(nc(OC[C@@]56CCCN5C[C@H](F)C6)nc4c2F)N2C[C@H]4CC[C@H](N4)[C@H]2[C@H](C(F)(F)F)O3)c1C(F)(F)F [Compound 247, 2-Fluoro-5-((5R,5aS,6S,9R)-1-fluoro-12-(((2R,7aS)-2-fluorotetrahydro-1H-pyrrolizin-7a(5H)-yl)methoxy)-5-(trifluoromethyl)-5a,6,7,8,9,10-hexahydro-5H-4-oxa-3,10a,11,13,14-pentaaza-6,9-methanonaphtho[1,8-ab]heptalene-2-yl)-3-methyl-4-(trifluoromethyl)aniline]	1.64 nM	1 nM	643 nM
Cc1cc(N)cc(-c2nc3c4c(nc(OC[C@]56CCCN5CC(F)(F)C6)nc4c2F)N2C[C@H]4CC[C@H](N4)[C@H]2[C@H](C)O3)c1C(F)(F)F [Compound 69, 3-((5S,5aS,6S,9R)-12-(((R)-2,2-Difluorotetrahydro-1H-pyrrolizin-7a(5H)-yl)methoxy)-1-fluoro-5-methyl-5a,6,7,8,9,10-hexahydro-5H-4-oxa-3,10a,11,13,14-pentaaza-6,9-methanonaphtho[1,8-ab]heptalen-2-yl)-5-methyl-4-(trifluoromethyl)aniline]	6.42 nM	21.3 nM	1280 nM
Cc1c(F)c(N)cc(-c2nc3c4c(nc(OC[C@@]56CCCN5CC5(CC5(F)F)C6)nc4c2F)N2C[C@H]4CC[C@H](N4)[C@H]2[C@H](C)O3)c1C(F)(F)F (stereo partly drawn) [Compound 62, 5-((5S,5aS,6S,9R)-12-(((7a′S)-2,2-Difluorodihydro-1′H,3′H-spiro[cyclopropane-1,2′-pyrrolizin]-7a′(5′H)-yl)methoxy)-1-fluoro-5-methyl-5a,6,7,8,9,10-hexahydro-5H-4-oxa-3,10a,11,13,14-pentaaza[6,9]methanonaphtho[1,8-ab]heptalen-2-yl)-2-fluoro-3-methyl-4-(trifluoromethyl)aniline]	0.261 nM	0.3 nM	111 nM
Cc1c(F)c(N)cc(-c2nc3c4c(nc(OC[C@@H]5CC[C@H]6COCCN65)nc4c2F)N2C[C@H]4CC[C@H](N4)[C@H]2[C@H](C(F)(F)F)O3)c1C(F)(F)F [Compound 245, 2-Fluoro-5-((5R,5aS,6S,9R)-1-fluoro-12-(((6S,8aS)-hexahydro-1H-pyrrolo[2,1-c][1,4]oxazin-6-yl)methoxy)-5-(trifluoromethyl)-5a,6,7,8,9,10-hexahydro-5H-4-oxa-3,10a,11,13,14-pentaaza-6,9-methanonaphtho[1,8-ab]heptalene-2-yl)-3-methyl-4-(trifluoromethyl)aniline]	4.13 nM	3.6 nM	739 nM
